Test results: patent publication US8865634B2, “4-alkyl substituted pyridines as odiferous substances” (Symrise AG, priority 2008, dated 2014)

Experiments:
[1] = Olfactory description of the individual compounds; conditions: pure compound
Source text: The olfactory descriptions of the individual compounds are as follows: […]

[2] = Threshold value in air (odor perception threshold, sample bag with gas stream); conditions: equilibrium approximately 18 hours at ambient temperature; as a rule 8 test subjects
Protocol: The odiferous substance to be tested is evaporated in a defined sampling system and then assessed sensorially with regard to the perception threshold. The sampling system comprises the sample bag and a gas stream outlet. A defined quantity of the desired odiferous substance is squirted into the bag. The equilibrium time after filling with the sample is approximately 18 hours at ambient temperature; then the content of the bag is presented to the test subject by means of a constant gas stream. At the first discernable olfactory impression a response button is pressed. The odor threshold concentration is achieved when in the next dilution stage the olfactory impression is confirmed by repeated pressing of the response button. The concentration of the sample is increased between the previous and the next samples by a factor of 2.
The assessment of the threshold value in air is measured against a standard and as a rule 8 test subjects take part in the sensorial evaluation. The participants have no anosmia in respect of the samples to be investigated.

[3] = Diffusivity test (Petri dish 50 cm in front of the test subject, intensity rating); conditions: scale 1-9 (1=odorless to 9=very strong); 0.5 g in Petri dish, 50 cm from test subject, 20-25° C.
Source text: 0.5 g of the odiferous substances to be tested are each weighed in a Petri dish and sealed with the lid. The Petri dish is placed 50 cm in front of the test subject (the distance is marked on the table before the test commences).
The lid is then removed from the Petri dish and a stopwatch is simultaneously started by the test subject. The test subject stops the time immediately they perceive the odor. The test subject assesses the intensity of the sample on a scale of 1=odorless to 9=very strong. The stop time and the intensity are noted on the test sheet.
Each sample is evaluated by the test subject three times. In order to be certain that the result is not distorted, all windows and doors must be shut. The room is at normal temperature (20-25° C.). […] As a rule a minimum of 8 participants evaluate the sample.

[4] = Olfactory evaluation of perfume oils with and without 4-decyl pyridine dosed into products
Source text: The composition with 4-n-decyl pyridine also has a fresher radiance overall.
Furthermore, the composition as a whole appears to be more harmonious and rounded.

| SMILES | olfactory description [1] | Threshold value in air [2] | Diffusivity [3] | also measured |
| --- | --- | --- | --- | --- |
| CCCCCCCCCCc1ccncc1 [4-decyl pyridine] | valuable marine character prized and sought after by perfumists | 0.014 ppm | 8.1 | olfactory effect in perfume oil ([4]; 0.001% in perfume oil F2, 12% perfume oil in ethanol (fine fragrance)): intensifies the transparent fresh head note; olfactory effect in perfume oil ([4]; 0.005% in perfume oil A2, 0.3% perfume oil in all-purpose cleaner, versus A1): extreme intensification of the marine-mossy note; olfactory effect in perfume oil (booster effect) ([4]; 0.01% in perfume oil P2, 0.3% perfume oil in washing powder, versus P1): intensification of the lily of the valley and the fruity notes to a quite exceptional extent; olfactory effect in perfume oil ([4]; 0.02% in perfume oil D2, 0.5% perfume oil in shower gel): boosts (intensifies) the watery-fresh head note of the perfume oil composition; olfactory effect in perfume oil ([4]; 0.05% in perfume oil S2, 0.5% perfume oil in shampoo): intensifies (at a dosing of 0.5% of the perfume oil in the shampoo) the fruity peach/apricot character; olfactory effect in perfume oil ([4]; 0.07% in perfume oil C2, 1.2% perfume oil in soap, versus C1): enormous intensification of the fresh characteristic; olfactory effect in perfume oil ([4]; 1.0% in perfume oil W2, 0.6% perfume oil in fabric conditioner): greatly increases the sought-after violet character |
| CC(C)=CCCC(C)=CCCc1ccncc1 [Maritima ®, 4-(4,8-dimethyl-3,7-nonadienyl)-pyridine, reference compound] |  | 0.155 ppm | 3.4 |  |
| CCCCCCCCCCCc1ccncc1 [4-n-undecyl pyridine, 4-undecyl pyridine] | marine character, combining an aldehyde-like note with slight echoes of mandarin |  |  |  |
| CCCCCCCCCCCCc1ccncc1 [4-n-dodecyl pyridine] | Marine (watery) note, reminiscent of seaweed |  |  |  |
| CCCCCCCCCc1ccncc1 [4-n-nonyl pyridine, 4-nonyl pyridine] | distinctive odor of the sea |  |  |  |
| CCCCCCCCc1ccncc1 [4-n-octyl pyridine, 4-octyl pyridine] | very intensive marine (watery) odor with an ozone note |  |  |  |
